The conditions of data set [1]: unencapsulated, free chelate; cited from earlier work.
Data set [2] can be described thus: NMR relaxometry of GdDTPA-BMA containing liposomes in vitro (inversion recovery T1). In kind it is physicochemical. The following applies: GdDTPA-BMA in solution of solubilized liposome (0.1% C12E8), 1 mM Gd.
Protocol: NMR relaxometry and magnetic resonance (MR) imaging were performed using a 2.0 Tesla small bore magnet (Bruker Omega 2.0T System, Bruker Instruments, Inc., Fremont, Calif.) equipped with actively shielded gradients (Accustar™ S-150, Bruker Instruments, Inc., Fremont, Calif.) capable of delivering field gradients up to 20 G/cm along each axis (X, Y and Z).
T1 relaxation rates of various liposome suspensions with a mean diameter of 110 nm were determined by standard inversion recovery measurment. The content of GdDTPA-BMA in liposome suspensions was estimated from NMR relaxometry. An inversion recovery NMR spectroscopy pulse sequence was performed in which a nonselective composite inversion pulse (90x-180y-90x) was applied, followed by a gradient spoiler pulse to eliminate residual coherent in-plane magnetization. After a variable delay time (TI), z-magnetization was sampled by a nonselective 90° radiofrequency pulse and the signal was recorded. The inversion recovery signal profile was obtained from at least forty such measurements in which the TI delay was incremented from 20 ms to a value that was at least 3-fold greater than the T1.
Mz(TI)/M∞=1−k exp(TI/T1) Eq. 1,
in which Mz(TI) is the signal intensity measured at a particular value of TI, M∞ is the fully relaxed signal intensity, and k has the value of 2.0 if the inversion pulse is exactly 180°. […]

Regarding `O=C([O-])CN(CCN(CC(=O)[O-])CC(=O)O)CCN(CC(=O)[O-])CC(=O)O.[Gd+3]` [Gd-DTPA, gadolinium-diethylene triamine pentaacetic acid], in data set [1], the biologic half-life entry is reported as “approximately 30 min”.

Regarding `CNC(=O)CN(CCN(CCN(CC(=O)[O-])CC(=O)NC)CC(=O)[O-])CC(=O)[O-].[Gd+3]` [Gd-DTPA-BMA, Gadolinium-diethylene-triamine-pentaacetic-acid-bis-methylamide], the “Relaxivity=ΔR1/[Gd]” value in data set [2] came out at 4.07 s⁻¹ mM⁻¹. The biologic half-life entry in data set [1] was “approximately 30 min”.
